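Grown in 96-well plates, cells were treated for 48 hours with each compound at five concentrations. Insufficient inhibition: endpoint recorded as highest concentration tested. GI50: concentration for 50% inhibition of growth.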 Activity calls are given as the source filed them. Rule as the data show it: active = GI50 up to about 1.1 µM and inactive = higher.
What was measured:
Test in all cases: growth of human tumour cells (NCI), 48 h
NCI/ADR-RES = system: NCI/ADR-RES
MDA-MB-231 = system: MDA-MB-231
NCI-H460 = system: NCI-H460
MDA-N = system: MDA-N
HCT-116 = system: HCT-116
HCC 2998 = system: HCC 2998
Hs-578T = system: Hs-578T
HOP-92 = system: HOP-92
K562 = system: K562
COLO 205 = system: COLO 205
IGROV-1 = system: IGROV-1
HL-60 = system: HL-60
SNB-75 = system: SNB-75
DU-145 = system: DU-145
PC-3 = system: PC-3
SR = system: SR
TK-10 = system: TK-10
SK-MEL-2 = system: SK-MEL-2
EKVX = system: EKVX

Measured: GI50

CSC(=S)CC(O)[C@@H]1CC2c3ccccc3C1c1ccccc12 (stereo partly specified)
inactive: NCI/ADR-RES 12.6 µM | MDA-MB-231 23.8 µM | NCI-H460 14.6 µM | MDA-N 11.7 µM | HCT-116 8.11 µM | HCC 2998 12.8 µM | Hs-578T 15 µM | HOP-92 17.4 µM | K562 4.56 µM | COLO 205 18.1 µM | IGROV-1 11.8 µM | HL-60 2.54 µM | SNB-75 > 10 µM | DU-145 15.2 µM | PC-3 5.83 µM | SR 3.46 µM | TK-10 15.2 µM

CCOC(=O)c1ccc(NCC#CCN2CCCCC2)cc1
inactive: NCI/ADR-RES > 100 µM | MDA-MB-231 > 100 µM | MDA-N 60.4 µM | HCT-116 96.8 µM | Hs-578T > 100 µM | HOP-92 > 100 µM | K562 26.8 µM | COLO 205 41.9 µM | SK-MEL-2 > 100 µM | IGROV-1 > 100 µM | HL-60 60.1 µM | DU-145 > 100 µM | PC-3 > 100 µM | EKVX > 100 µM | SR > 100 µM

CC[C@@H]1CC[C@@H]2[C@H](CC[C@]3(C)[C@@H](OS(=O)(=O)c4ccc(C)cc4)CC[C@@H]23)[C@H]1CO
inactive: NCI/ADR-RES > 100 µM | MDA-MB-231 > 100 µM | NCI-H460 > 100 µM | MDA-N > 100 µM | HCT-116 > 100 µM | HCC 2998 > 100 µM | Hs-578T > 100 µM | HOP-92 > 100 µM | K562 69.2 µM | COLO 205 12.4 µM | IGROV-1 > 100 µM | HL-60 17.8 µM | SNB-75 91 µM | DU-145 > 100 µM | PC-3 82 µM | EKVX 12.2 µM | SR > 100 µM | TK-10 > 100 µM

O=C1O[C@H]2[C@H](O)[C@@H](OC(=O)c3cc(O)c(O)c4c3[C@@H]3C1=CC(=O)C(O)(O)C3(O)O4)[C@H](OC(=O)c1cc(O)c(O)c(O)c1)O[C@@H]2CO (stereo partly specified) [FUROSIN]
inactive: NCI/ADR-RES > 100 µM | MDA-MB-231 > 100 µM | NCI-H460 64.1 µM | MDA-N 33.6 µM | HCT-116 74.8 µM | HCC 2998 > 100 µM | Hs-578T > 100 µM | HOP-92 42 µM | K562 38.1 µM | COLO 205 99.3 µM | SK-MEL-2 > 100 µM | IGROV-1 > 100 µM | HL-60 28.2 µM | SNB-75 78.9 µM | DU-145 > 100 µM | PC-3 > 100 µM | EKVX > 100 µM | SR 32.1 µM

CCCc1c(O)nc2ccccc2c1O
inactive: NCI/ADR-RES > 100 µM | MDA-MB-231 > 100 µM | NCI-H460 > 100 µM | MDA-N > 100 µM | HCT-116 > 100 µM | HCC 2998 > 100 µM | Hs-578T > 100 µM | HOP-92 > 100 µM | K562 > 100 µM | COLO 205 > 100 µM | IGROV-1 > 100 µM | HL-60 > 100 µM | SNB-75 > 100 µM | DU-145 > 100 µM | PC-3 > 100 µM | EKVX > 100 µM | SR > 100 µM | TK-10 > 100 µM

COC(=O)C1(Cc2ccc3c(c2)CCC3)Cc2ccc3c(c2C1)CCC3 (stereo unspecified)
inactive: NCI/ADR-RES 20.6 µM | MDA-MB-231 15.6 µM | NCI-H460 24.8 µM | MDA-N 13.2 µM | HCT-116 18.1 µM | HCC 2998 34.5 µM | Hs-578T 17.4 µM | HOP-92 18.7 µM | K562 85.5 µM | COLO 205 19 µM | IGROV-1 21.1 µM | HL-60 23.4 µM | SNB-75 > 100 µM | DU-145 24.8 µM | PC-3 16.9 µM | EKVX 31.3 µM | SR > 10 µM | TK-10 49.7 µM

COc1ccc2c(c1)-c1[nH]c3ccc(OC)cc3c1CC2
inactive: NCI/ADR-RES 11.4 µM | MDA-MB-231 17.3 µM | NCI-H460 16.3 µM | MDA-N 14.7 µM | HCT-116 17.1 µM | HCC 2998 15.6 µM | Hs-578T 13.4 µM | HOP-92 19.2 µM | K562 8.99 µM | COLO 205 18 µM | SK-MEL-2 14.5 µM | IGROV-1 13.6 µM | SNB-75 13.5 µM | DU-145 17.1 µM | PC-3 11.4 µM | EKVX 7.28 µM | SR 13.6 µM | TK-10 16.8 µM

O=C(NCCCCCCCCNC(=O)c1cc(-c2ccccc2)nc2ccccc12)c1cc(-c2ccccc2)nc2ccccc12
inactive: NCI/ADR-RES > 100 µM | MDA-MB-231 > 100 µM | NCI-H460 > 100 µM | MDA-N > 100 µM | HCT-116 > 100 µM | Hs-578T 28.7 µM | HOP-92 > 100 µM | K562 > 100 µM | COLO 205 > 100 µM | IGROV-1 > 100 µM | HL-60 > 100 µM | SNB-75 38.6 µM | DU-145 > 100 µM | PC-3 > 100 µM | EKVX > 100 µM | SR > 100 µM | TK-10 > 100 µM

c1coc(-c2nccc3c2[nH]c2ccccc23)c1
inactive: NCI/ADR-RES > 100 µM | MDA-MB-231 > 100 µM | NCI-H460 > 100 µM | MDA-N > 100 µM | HCT-116 > 100 µM | HCC 2998 > 100 µM | Hs-578T > 100 µM | HOP-92 35 µM | K562 > 100 µM | COLO 205 17.5 µM | SK-MEL-2 > 100 µM | IGROV-1 > 100 µM | HL-60 > 100 µM | DU-145 > 100 µM | PC-3 > 100 µM | EKVX > 100 µM | SR > 100 µM | TK-10 > 100 µM

CC(C(=O)n1ccnc1)N1c2ccccc2Sc2ccccc21 (stereo unspecified)
inactive: NCI/ADR-RES 63.2 µM | MDA-MB-231 78.3 µM | NCI-H460 92 µM | MDA-N > 100 µM | HCT-116 > 100 µM | Hs-578T > 100 µM | HOP-92 25.1 µM | K562 91.2 µM | COLO 205 79.3 µM | SK-MEL-2 > 100 µM | IGROV-1 > 100 µM | HL-60 91.8 µM | SNB-75 40.6 µM | DU-145 > 100 µM | PC-3 55.1 µM | EKVX 88.3 µM | SR 50.1 µM | TK-10 > 100 µM

CC(C)CC1c2[nH]c3ccccc3c2C[C@H]2C(=O)NC(COC(C)(C)C)C(=O)N12 (stereo partly specified)
inactive: NCI/ADR-RES 20.8 µM | MDA-MB-231 18.7 µM | MDA-N 21.8 µM | HCT-116 18.6 µM | Hs-578T 13.3 µM | HOP-92 31.8 µM | K562 31.7 µM | COLO 205 20.4 µM | SK-MEL-2 19.9 µM | IGROV-1 23.3 µM | HL-60 26.4 µM | DU-145 34.5 µM | PC-3 22 µM | EKVX 24.9 µM | SR 16.4 µM | TK-10 23 µM

— ChEMBL document CHEMBL1201862, “PubChem BioAssay data set” (2004)
